Assay results from US20180110762A1, “Compositions Methods for Treating Chronic Kidney Disease” (Merck Sharp & Dohme Corp, priority 2015, published 2018).

How the values were obtained:
[1] = molecular target: T1, Human recombinant integrin α5β1 (Homo sapiens, UniProt P05556+P08648); assay: Thermal shift assay (differential scanning fluorimetry), α5β1; format: binding; settings: α5β1, 20 μM Compound A
T1 construct: purchased R&D Systems
Experimental: Differential scanning fluorimetry was performed on a LightCycler 480 II, real-time PCR instrument (Roche Diagnostics). Human recombinant integrins from R&D Systems (αvβ1, αvβ3 and α5β1) were reconstituted at a concentration of […] in assay buffer (20 mM HEPES, pH=7.3, 100 mM NaCl, 1 mM MgCl2, 1 mM MnCl2) and diluted in assay buffer with Sypro orange (SIGMA) to a final concentration of 400 nM integrin and 5× Sypro orange. A volume of 4.9 μL of this mixture of protein and dye was transferred to a 384-well plate and 100 nL of DMSO or Compound A, dissolved in DMSO, were added using an Echo 555 instrument (Labcyte). The final concentration of Compound A in the assay was 20 μM. After mixing, the assay plate was sealed, spun at 1,000×g for two minutes, and subsequently heated from 25 to 99° C. over the course of 31 min in the LightCycler 480 II instrument. Fluorescence intensity was measured using excitation/emission wavelengths of 465 and 580 nm, respectively. Changes in protein thermal stability (ΔTm) upon compound binding were analyzed by using LightCycler 480 (software provided by the manufacturer).

[2] = test system: male obese ZSF1 rats (diabetic nephropathy model); assay: ZSF1 rat study: plasma triglyceride and cholesterol; format: in vivo; settings: for Plasma Triglyceride / plasma cholesterol levels: obese ZSF1 rats; for plasma cholesterol levels: in mg/dL (unit assumed)
Experimental: (§1) The effects of Compound A (“A”) on renal function, plasma triglycerides, plasma cholesterol, kidney collagen I, kidney collagen III, renal histology, glomerular filtration rate, fibrosis score, and mRNA gene expression (profibrotic genes and integrin β3) were evaluated in male obese ZSF1 rats (a hybrid F1 of Zucker diabetic fatty rat and spontaneously hypertensive heart failure rat; a diabetic nephropathy model) when administered as in-feed for 28 weeks. Sixty obese male ZSF1 rats were randomized to five groups: Obese control (n=12), Compound A 60 mpk (n=12), Compound A 200 mpk (n=12), Compound A 400 mpk (n=12), Enalapril 10 mpk (n=12); Eight lean male ZSF1 rats were used for normal control. Renal functional changes were monitored by blood and urine analysis following in-feed dosing for 28 weeks. Compound exposure was also monitored during the study.

[3] = test system: male obese ZSF1 rats (diabetic nephropathy model); assay: ZSF1 rat study: kidney mRNA expression of profibrotic genes and integrin beta3; format: in vivo; settings: for Collagen I (a1) expression in the kidney / Collagen III (a1) expression in the kidney / Integrin beta3 expression in the kidney / PAI-1 expression in the kidney: obese ZSF1 rats, week 28
Experimental: as §1

T1 sequence (P08648 42-995 limits assumed): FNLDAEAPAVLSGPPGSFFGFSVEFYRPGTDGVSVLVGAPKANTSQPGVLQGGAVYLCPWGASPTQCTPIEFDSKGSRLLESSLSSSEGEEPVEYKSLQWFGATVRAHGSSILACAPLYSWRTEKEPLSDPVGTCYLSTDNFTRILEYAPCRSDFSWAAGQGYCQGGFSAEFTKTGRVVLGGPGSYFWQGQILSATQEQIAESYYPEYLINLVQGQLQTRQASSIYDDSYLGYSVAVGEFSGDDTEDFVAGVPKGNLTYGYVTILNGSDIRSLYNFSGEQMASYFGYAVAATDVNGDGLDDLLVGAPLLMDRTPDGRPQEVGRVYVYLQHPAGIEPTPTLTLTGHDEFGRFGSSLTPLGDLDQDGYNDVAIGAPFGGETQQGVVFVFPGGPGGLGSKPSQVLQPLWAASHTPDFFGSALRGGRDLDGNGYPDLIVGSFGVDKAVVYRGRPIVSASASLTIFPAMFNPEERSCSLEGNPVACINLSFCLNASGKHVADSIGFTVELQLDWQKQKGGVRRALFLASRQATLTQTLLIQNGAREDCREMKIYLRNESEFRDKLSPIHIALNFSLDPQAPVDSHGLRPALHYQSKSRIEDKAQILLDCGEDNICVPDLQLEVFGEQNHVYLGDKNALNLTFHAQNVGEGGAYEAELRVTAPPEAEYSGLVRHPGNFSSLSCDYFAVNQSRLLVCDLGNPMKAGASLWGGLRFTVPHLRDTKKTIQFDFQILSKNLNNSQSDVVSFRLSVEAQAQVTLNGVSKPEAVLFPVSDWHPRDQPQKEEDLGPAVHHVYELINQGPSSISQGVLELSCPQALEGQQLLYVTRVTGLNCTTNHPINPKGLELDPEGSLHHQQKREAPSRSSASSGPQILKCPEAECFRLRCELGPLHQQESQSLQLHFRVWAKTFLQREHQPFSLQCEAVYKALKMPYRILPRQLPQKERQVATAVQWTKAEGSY
T1 sequence (P05556 21-728 limits assumed): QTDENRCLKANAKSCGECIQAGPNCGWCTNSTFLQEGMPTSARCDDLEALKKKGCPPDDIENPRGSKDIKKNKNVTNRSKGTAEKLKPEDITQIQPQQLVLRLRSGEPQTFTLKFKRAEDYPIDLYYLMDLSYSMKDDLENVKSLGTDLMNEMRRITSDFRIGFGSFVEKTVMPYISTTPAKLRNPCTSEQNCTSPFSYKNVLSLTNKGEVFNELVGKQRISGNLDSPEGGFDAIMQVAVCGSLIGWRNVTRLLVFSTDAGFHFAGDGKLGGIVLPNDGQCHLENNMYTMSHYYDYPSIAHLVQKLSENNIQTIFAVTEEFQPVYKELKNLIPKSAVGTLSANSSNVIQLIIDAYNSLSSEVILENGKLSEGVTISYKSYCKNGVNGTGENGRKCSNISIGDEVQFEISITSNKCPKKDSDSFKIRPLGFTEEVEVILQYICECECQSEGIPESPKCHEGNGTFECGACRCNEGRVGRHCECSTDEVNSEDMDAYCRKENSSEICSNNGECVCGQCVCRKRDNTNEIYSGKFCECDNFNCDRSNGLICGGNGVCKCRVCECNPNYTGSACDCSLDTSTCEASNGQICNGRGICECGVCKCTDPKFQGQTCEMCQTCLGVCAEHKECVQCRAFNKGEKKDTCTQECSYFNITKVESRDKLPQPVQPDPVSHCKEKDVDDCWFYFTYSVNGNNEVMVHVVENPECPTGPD

## COc1ccc([C@H](CC(=O)O)N2CCN(CCCc3ccc4c(n3)NCCC4)C2=O)cn1 [Compound A, 3-{2-Oxo-3-[3-(5,6,7,8-tetrahydro-[1,8]naphthyridin-2-yl)-propyl]imidazolidin-1-yl}-3 (S)-(6-methoxy-pyridin-3-yl)-propionic acid]
[1]; first of two experiments
  ΔTm at 20 µM: 8.1 °C
[1]; second of two experiments
  ΔTm at 20 µM: 14 °C
[2]; 200 mpk at week 4 and 400 mpk at week 16 and 28
  effect on plasma triglyceride levels: significantly decreased
[2]; 200 mpk at week 28 and 400 mpk at week 16, 21, 24, and 28
  effect on plasma cholesterol levels: significantly decreased
[2]; high doses, obese ZSF-1 rats vs untreated obese ZSF-1 rats (summary)
  plasma TG and cholesterol: improvement of plasma TG and cholesterol
[2]; 60 mpk in-feed, week 2
  Plasma Triglyceride: 2535.3 ± 170.6 mg/dL
  plasma cholesterol levels: 229.3 ± 9.6
[2]; 60 mpk in-feed, week 4
  Plasma Triglyceride: 2807.5 ± 143.4 mg/dL
  plasma cholesterol levels: 262.7 ± 10.5
[2]; 60 mpk in-feed, week 6
  Plasma Triglyceride: 2873.2 ± 116.5 mg/dL
  plasma cholesterol levels: 261.2 ± 9.9
[2]; 60 mpk in-feed, week 8
  Plasma Triglyceride: 3187.9 ± 157.1 mg/dL
  plasma cholesterol levels: 289.1 ± 9.5
[2]; 60 mpk in-feed, week 12
  Plasma Triglyceride: 3138.5 ± 168.9 mg/dL
  plasma cholesterol levels: 315.4 ± 13.2
[2]; 60 mpk in-feed, week 16
  Plasma Triglyceride: 3120.3 ± 191.6 mg/dL
  plasma cholesterol levels: 357.8 ± 13.3
[2]; 60 mpk in-feed, week 21
  Plasma Triglyceride: 2933.4 ± 317.5 mg/dL
  plasma cholesterol levels: 392.9 ± 20.6
[2]; 60 mpk in-feed, week 24
  Plasma Triglyceride: 3093.3 ± 355.2 mg/dL
  plasma cholesterol levels: 448.0 ± 23.8
[2]; 60 mpk in-feed, week 28
  Plasma Triglyceride: 3218.7 ± 427.5 mg/dL
  plasma cholesterol levels: 495.7 ± 29.4
[2]; 60 mpk in-feed, week −2
  Plasma Triglyceride: 2046.8 ± 72.0 mg/dL
  plasma cholesterol levels: 192.0 ± 4.5
[2]; 200 mpk in-feed, week 2
  Plasma Triglyceride: 2111.1 ± 123.5 mg/dL
  plasma cholesterol levels: 205.4 ± 7.8
[2]; 200 mpk in-feed, week 4
  Plasma Triglyceride: 2592.4 ± 206.8 mg/dL
  plasma cholesterol levels: 243.5 ± 9.2
[2]; 200 mpk in-feed, week 6
  Plasma Triglyceride: 2534.6 ± 185.5 mg/dL
  plasma cholesterol levels: 233.7 ± 9.1
[2]; 200 mpk in-feed, week 8
  Plasma Triglyceride: 3325.3 ± 189.8 mg/dL
  plasma cholesterol levels: 289.3 ± 9.3
[2]; 200 mpk in-feed, week 12
  Plasma Triglyceride: 3188.3 ± 191.4 mg/dL
  plasma cholesterol levels: 315.9 ± 11.2
[2]; 200 mpk in-feed, week 16
  Plasma Triglyceride: 2930.4 ± 217.5 mg/dL
  plasma cholesterol levels: 346.8 ± 12.1
[2]; 200 mpk in-feed, week 21
  Plasma Triglyceride: 2717.2 ± 199.8 mg/dL
  plasma cholesterol levels: 366.7 ± 14.1
[2]; 200 mpk in-feed, week 24
  Plasma Triglyceride: 2923.8 ± 267.3 mg/dL
  plasma cholesterol levels: 415.1 ± 19.6
[2]; 200 mpk in-feed, week 28
  Plasma Triglyceride: 2632.8 ± 269.6 mg/dL
  plasma cholesterol levels: 451.9 ± 23.6
[2]; 200 mpk in-feed, week −2
  Plasma Triglyceride: 1965.3 ± 83.6 mg/dL
  plasma cholesterol levels: 189.5 ± 6.6
[2]; 400 mpk in-feed, week 2
  Plasma Triglyceride: 2415.9 ± 119.5 mg/dL
  plasma cholesterol levels: 229.8 ± 6.0
[2]; 400 mpk in-feed, week 4
  Plasma Triglyceride: 2763.1 ± 146.9 mg/dL
  plasma cholesterol levels: 252.3 ± 5.3
[2]; 400 mpk in-feed, week 6
  Plasma Triglyceride: 2715.6 ± 111.4 mg/dL
  plasma cholesterol levels: 238.9 ± 6.6
[2]; 400 mpk in-feed, week 8
  Plasma Triglyceride: 3185.0 ± 191.8 mg/dL
  plasma cholesterol levels: 278.8 ± 9.5
[2]; 400 mpk in-feed, week 12
  Plasma Triglyceride: 3086.5 ± 121.3 mg/dL
  plasma cholesterol levels: 306.4 ± 7.0
[2]; 400 mpk in-feed, week 16
  Plasma Triglyceride: 2648.9 ± 167.8 mg/dL
  plasma cholesterol levels: 304.6 ± 11.1
[2]; 400 mpk in-feed, week 21
  Plasma Triglyceride: 2523.9 ± 220.7 mg/dL
  plasma cholesterol levels: 351.4 ± 13.8
[2]; 400 mpk in-feed, week 24
  Plasma Triglyceride: 2439.5 ± 162.4 mg/dL
  plasma cholesterol levels: 374.7 ± 12.8
[2]; 400 mpk in-feed, week 28
  Plasma Triglyceride: 2215.7 ± 179.3 mg/dL
  plasma cholesterol levels: 391.2 ± 14.7
[2]; 400 mpk in-feed, week −2
  Plasma Triglyceride: 2211.5 ± 117.2 mg/dL
  plasma cholesterol levels: 195.5 ± 5.5
[3]; 200 mpk or 400 mpk at week 28
  effect on expression of key profibrotic genes and integrin beta3 in the kidney vs obese vehicle: significantly decreased
[3]; 200 mpk in-feed
  Collagen I (a1) expression in the kidney: 0.79 ± 0.04
  Collagen III (a1) expression in the kidney: 0.60 ± 0.03
  Integrin beta3 expression in the kidney: 0.83 ± 0.03
  PAI-1 expression in the kidney: 0.80 ± 0.03
[3]; 400 mpk in-feed
  Collagen I (a1) expression in the kidney: 0.66 ± 0.02
  Collagen III (a1) expression in the kidney: 0.52 ± 0.01
  Integrin beta3 expression in the kidney: 0.74 ± 0.03
  PAI-1 expression in the kidney: 0.66 ± 0.03
